Measurements taken from patent US20250154193A1, “STEROID COMPOUND, AND PREPARATION METHOD THEREFOR AND APPLICATION THEREOF” (CHOLESGEN (SHANGHAI) CO., LTD., priority 2022, published 2025).

Columns and labels:
[1] = tested on: Ldlr−/− mice; experiment: AMLN diet-induced fatty liver model: body weight, serum and liver metabolic parameters; format: in vivo; settings: 30 mg/kg/day intragastrically, 8 weeks
Text: Animals: Adult male C57BL/6J mice were purchased from Shanghai SLAC, and low-density lipoprotein receptor knockout mice (Ldlr^−/− mice, T001464) were purchased from Jiangsu GemPharmatech Co., Ltd. Mice were housed in an environment free of pathogens, maintained in a 12-hour light/dark cycle, and had free access to water and feed. The vehicle for oral gavage was 0.5% Tween-80, 0.5% methylcellulose, and 0.9% sodium chloride. AMLN feed (AMLN, Dyets) contains 40% (kcal %) fat (80% of which is trans fat), 22% (mass %) fructose, and 2% (mass %) cholesterol.
After drug treatment, mice were fasted for 4 hours before being euthanized, and blood and liver samples were collected. Blood was coagulated and centrifuged at 1,500 g for 10 minutes at 4° C. to obtain the supernatant (i.e., serum). Lipids from liver were extracted using the chloroform/methanol method. The samples were first homogenized and crushed using a Precelly 24 homogenizer, and centrifuged at 16,000 g for 10 minutes at 4° C. The organic phase was transferred to a new tube, dried with nitrogen, and dissolved in ethanol. Total cholesterol and triglyceride levels in blood and liver were measured by cholesterol and triglyceride kits (Shanghai Kehua Bio-Engineering Co., Ltd.), respectively. ALT (LE-M0477, Lai Er Bio-Tech) and AST (LE-M0568, Lai Er Bio-Tech) levels in serum were measured according to the corresponding manufacturer's manuals, using an analytical system from Sysmex Shanghai Ltd.
Male C57BL/6J mice and male Ldlr^−/− mice (TOO1464, Jiangsu GemPharmatech Co., Ltd.) at 8 weeks of age were purchased, grouped, fed with different diets, and treated with different drugs. The mice were randomly divided into 4 groups with 8 to 9 mice in each group: One group consisted of C57BL/6J wild-type mice, which was the chow diet (CD) vehicle control group. The other three groups consisted of Ldlr^−/− knockout mice, including chow diet (CD) vehicle control group, AMLN diet (containing […], 22% fructose, and 2% cholesterol) vehicle control group, and AMLN diet combined with 25-hydroxylanosterol administration group (25-hydroxylano sterol was administered at a concentration of 30 mg/kg/day). The mice in four groups were intragastrically administered once a day, during which the changes in food intake and body weight of the mice in different treatment groups were counted. After 8 weeks, blood and liver samples were collected from the mice to analyze blood lipids, liver lipids, and liver damage phenotypes.
In FIGS. 1 and 2, P values were calculated using the statistical analysis of two-way ANOVA (Dunnett's multiple comparisons test); * indicates P<0.05; ns indicates no statistical difference. In FIGS. 3 to 8, data are represented as mean±standard deviation. P values were calculated using one-way ANOVA; * indicates P<0.05; ** indicates P<0.01; *** indicates P<0.001.

[2] = tested on: Ldlr−/− mice; experiment: Sudan IV staining of atherosclerotic plaques of the aortic tree; format: in vivo; settings: AMLN diet, intragastrically once a day, 8 weeks, vs control group
Text: After the administration experiment in mice, the aorta was isolated and fixed in 4% PFA. Perivascular adipose tissues were removed with ophthalmic forceps under a stereo microscope, stained with Sudan IV, and atherosclerotic plaques were washed in 70% ethanol. After staining, the aortic tree was imaged using a ZEISS Axio Zoom.V16 stereo microscope. Atherosclerotic lesions were quantified using ImageJ software.
AMLN-fed Ldlr^−/− mice also served as a common model for atherosclerosis, allowing simultaneous study of both fatty liver and atherosclerosis. Male Ldlr^−/− mice at 8 weeks of age were fed with AMLN diet and intragastrically administered once a day for a total of 8 weeks. After the mice were euthanized, the aorta was isolated and fixed in 4% paraformaldehyde. Perivascular adipose tissues were removed under a stereo microscope, stained with Sudan IV, and rinsed with 70% ethanol. The aortic tree was imaged using a stereo microscope (Axio Zoom.V16, ZEISS, Germany). Atherosclerotic plaques were quantified using ImageJ software.

C[C@H](CCCC(C)(C)O)[C@H]1CC[C@@]2(C)C3=C(CC[C@]12C)[C@@]1(C)CC[C@H](O)C(C)(C)[C@@H]1CC3 [compound 68, (1R,3aR,5aR,7S,9aS,11aR)-1-[(2R)-6-hydroxy-6-methylheptan-2-yl]-3a,6,6,9a,11a-pentamethyl-2,3,3a,4,5,5a,6,7,8,9,9a,10,11,11a-tetradecahydro-1H-cyclopenta[1,2-a]phenanthren-7-ol]
alanine aminotransferase (ALT) in serum [1]: significantly reduced | aspartate aminotransferase (AST) in serum [1]: significantly reduced | total liver cholesterol levels [1]: significantly reduced | total liver triglyceride levels [1]: significantly reduced | AMLN diet-induced weight gain ([1]; vs AMLN diet vehicle control): significantly lower | total cholesterol levels in serum ([1]; vs control group): significantly reduced | total triglyceride levels in serum ([1]; vs control group): significantly reduced | formation and quantity of atherosclerotic plaques (Sudan IV staining of aortic tree) [2]: significantly reduced
